Reference: patent publication US20250144067A1, “PERSONALIZED STARVATION THERAPY FOR CANCER” (Faeth Therapeutics, Inc., priority 2021, published 2025)
Ends that are not written are not given here.

Each substance was assayed on NCI-H292 lung cancer cells (assay: FDA drug screening, complete media vs cholesterol-free media without statin (TABLE 1)). Conditions: not given.
Type: cell-based, human

Substance	Cholesterol-free	Complete	Difference
Disodium succinate	1.636	0.8171	−0.82
Estramustine (phosphate sodium)	1.196	0.9487	−0.25

Same assay, conditions: Complete minus Cholesterol-free; >0 enhanced anti-cancer activity, about 0 neutral, <0 antagonist

Substance	Difference
Dabigatran etexilate (mesylate)	−0.23
Dexchlorpheniramine (maleate)	−0.05
Doxylamine (succinate)	−0.30
Escitalopram (oxalate)	−0.01
Gadobutrol	0.01

Same assay, conditions: Complete minus Cholesterol-free; […]

Substance	Difference
Cyclic somatostatin (AGCKNFFWKTFTSC; not fully specified (bridges); cysteine pairing not given here; UniProt P61278 103-116, looked up)	0.00
Dihydroergocristine (mesylate)	−0.17
Dihydroergotamine (mesylate)	−0.20
Dimemorfan (phosphate)	−0.08
Eliglustat (hemitartrate)	−0.24
Emamectin (Benzoate)	0.02
Enasidenib (mesylate)	−0.61
Estradiol (cypionate)	−0.22
Fesoterodine (fumarate)	−0.24
Fludarabine (phosphate)	−0.10
Gadopentetate (dimeglumine)	−0.06
Gadoxetate (Disodium)	−0.26

Same assay, conditions: NCI-H292 cells in cholesterol-free media without statin

Substance	Cholesterol-free
Enasidenib (mesylate)	1.538

Same assay, conditions: NCI-H292 cells in complete media

Substance	Complete
Enasidenib (mesylate)	0.9281

Same assay, conditions: NCI-H292 cells, FDA drug library screen, cholesterol-free media without statin

Substance	Cholesterol-free
Dimemorfan (phosphate)	0.9351

Same assay, conditions: NCI-H292 cells, FDA drug library screen, complete media

Substance	Complete
Dimemorfan (phosphate)	0.8552
Fludarabine (phosphate)	0.9769

Same assay, conditions: NCI-H292 cells, cholesterol-free media without statin

Substance	Cholesterol-free
Dabigatran etexilate (mesylate)	1.215
Dihydroergotamine (mesylate)	1.021
Doxylamine (succinate)	1.101
Eliglustat (hemitartrate)	0.8345
Estradiol (cypionate)	1.127
Fesoterodine (fumarate)	1.247
Gadoxetate (Disodium)	1.164

Same assay, conditions: NCI-H292 cells, cholesterol-free media without statin, FDA drug library screen

Substance	Cholesterol-free
Cyclic somatostatin (AGCKNFFWKTFTSC; not fully specified (bridges); cysteine pairing not given here; UniProt P61278 103-116, looked up)	1.02
Emamectin (Benzoate)	0.001259
Escitalopram (oxalate)	1.284
Gadobutrol	0.939
Gadopentetate (dimeglumine)	1.132

Same assay, conditions: NCI-H292 cells, complete media

Substance	Complete
Dabigatran etexilate (mesylate)	0.9831
Dihydroergotamine (mesylate)	0.8213
Doxylamine (succinate)	0.8034
Eliglustat (hemitartrate)	0.5954
Estradiol (cypionate)	0.9066
Fesoterodine (fumarate)	1.003
Gadoxetate (Disodium)	0.9023

Same assay, conditions: NCI-H292 cells, complete media, FDA drug library screen

Substance	Complete
Cyclic somatostatin (AGCKNFFWKTFTSC; not fully specified (bridges); cysteine pairing not given here; UniProt P61278 103-116, looked up)	1.023
Emamectin (Benzoate)	0.01673
Escitalopram (oxalate)	1.269
Gadobutrol	0.9511

These substances were tested on NCI-H292 lung cancer cells (assay: FDA drug screening, complete media vs cholesterol-free media with simvastatin (TABLE 2)). Conditions: not given.
Type: cell-based, human

Substance	Cholesterol-free media + simvastatin (0.04 μM)	Complete Media	Difference
Disodium succinate	1.636	1.676	0.04
Estramustine (phosphate sodium)	1.251		−0.18

Same assay, conditions: NCI-H292 cells, FDA drug library screen, cholesterol-free media with simvastatin 0.04 μM

Substance	Cholesterol-free media + simvastatin (0.04 μM)
Dabigatran etexilate (mesylate)	1.092
Dihydroergocristine (mesylate)	1.12
Emamectin (Benzoate)	0.006354
Estradiol (cypionate)	0.9809
Fesoterodine (fumarate)	0.9771
Gadoxetate (Disodium)	1.553

Same assay, conditions: NCI-H292 cells, FDA drug library screen, complete media

Substance	Complete Media
Dabigatran etexilate (mesylate)	0.9893
Dihydroergocristine (mesylate)	1.011
Emamectin (Benzoate)	0.4189
Estradiol (cypionate)	0.8945
Fesoterodine (fumarate)	1.278
Gadoxetate (Disodium)	1.778

Same assay, conditions: NCI-H292 cells, cholesterol-free media with simvastatin 0.04 μM; FDA drug library screen (TABLE 2)

Substance	Cholesterol-free media + simvastatin (0.04 μM)
Cyclic somatostatin (AGCKNFFWKTFTSC; not fully specified (bridges); cysteine pairing not given here; UniProt P61278 103-116, looked up)	0.9769
Dexchlorpheniramine (maleate)	0.9393
Dimemorfan (phosphate)	0.9385

Same assay, conditions: NCI-H292 cells, cholesterol-free media with simvastatin 0.04 μM; […]

Substance	Cholesterol-free media + simvastatin (0.04 μM)
Enasidenib (mesylate)	1.526
Fludarabine (phosphate)	1.095

Same assay, conditions: NCI-H292 cells, cholesterol-free media with simvastatin 0.04 μM; cell growth value in FDA drug screen

Substance	Cholesterol-free media + simvastatin (0.04 μM)
Doxylamine (succinate)	1.024
Escitalopram (oxalate)	0.9976

Same assay, conditions: NCI-H292 cells, complete media; FDA drug library screen (TABLE 2)

Substance	Complete Media
Dexchlorpheniramine (maleate)	0.9459
Dimemorfan (phosphate)	0.8687
Gadopentetate (dimeglumine)	1.1

Same assay, conditions: NCI-H292 cells, complete media; […]

Substance	Complete Media
Enasidenib (mesylate)	1.616
Fludarabine (phosphate)	1.138

Same assay, conditions: NCI-H292 cells, complete media; cell growth value in FDA drug screen

Substance	Complete Media
Doxylamine (succinate)	1.092

Same assay, conditions: NCI-H292 cells, drug in cholesterol-free media with simvastatin 0.04 μM

Substance	Cholesterol-free media + simvastatin (0.04 μM)
Eliglustat (hemitartrate)	0.9268
Gadobutrol	1.273

Same assay, conditions: NCI-H292 cells, drug in complete media

Substance	Complete Media
Dihydroergotamine (mesylate)	0.9713
Eliglustat (hemitartrate)	0.7576
Gadobutrol	1.022

Same assay, conditions: complete media minus cholesterol-free media + simvastatin (0.04 μM); >0 enhanced anti-cancer activity, about 0 neutral, <0 antagonist

Substance	Difference
Dexchlorpheniramine (maleate)	0.01

Same assay, conditions: complete media minus cholesterol-free media + simvastatin (0.04 μM); […]

Substance	Difference
Cyclic somatostatin (AGCKNFFWKTFTSC; not fully specified (bridges); cysteine pairing not given here; UniProt P61278 103-116, looked up)	−0.04
Dimemorfan (phosphate)	−0.07
Gadopentetate (dimeglumine)	−0.05

Same assay, conditions: complete media minus cholesterol-free media + simvastatin; >0 enhanced anti-cancer activity, about 0 neutral, <0 antagonist

Substance	Difference
Doxylamine (succinate)	0.07
Escitalopram (oxalate)	0.04

Same assay, conditions: complete media minus cholesterol-free media + simvastatin; […]

Substance	Difference
Emamectin (Benzoate)	0.41
Enasidenib (mesylate)	0.09
Fesoterodine (fumarate)	0.30
Fludarabine (phosphate)	0.04
Gadoxetate (Disodium)	0.22

Same assay, conditions: complete media vs cholesterol-free media + simvastatin (0.04 μM); >0 enhanced anti-cancer activity, about 0 neutral, <0 antagonist

Substance	Difference
Dabigatran etexilate (mesylate)	−0.10
Gadobutrol	−0.25

Same assay, conditions: complete media vs cholesterol-free media + simvastatin (0.04 μM); […]

Substance	Difference
Dihydroergocristine (mesylate)	−0.11
Dihydroergotamine (mesylate)	−0.18
Eliglustat (hemitartrate)	−0.17
Estradiol (cypionate)	−0.09
